These are literature values, as cited in patent US20220362410A1, “PREFERRED ANTERIOR CAPSULOTOMY LOCATION PROVIDED BY TRYPAN BLUE OPTHALMIC SOLUTION” (Excel-Lens, Inc., priority 2018, published 2022).

The test system of this data set is cell toxicity. The conditions noted are these: concentrations above the range 0.2 to 0.45%.

SMILES strings stand for the structures.

On to `Cc1cc(-c2ccc(/N=N/c3c(S(=O)(=O)O)cc4cc(S(=O)(=O)O)cc(N)c4c3O)c(C)c2)ccc1/N=N/c1c(S(=O)(=O)O)cc2cc(S(=O)(=O)O)cc(N)c2c1O` [Trypan Blue], for which the cell toxicity entry is given as “cell toxicity was noted”.
